The test system of data set [1] is Hs578T cells. Put plainly: Cell viability assay (ATPLite), Hs578T. Format: cell-based, human. The conditions noted are these: 72 hour incubation. The text has this:
(§1) Axl is a member of the TAM (TYRO3-Axl-MER) family of receptor tyrosine kinases, which, when activated, can increase tumor cell survival, proliferation, migration and invasion, angiogenesis, and tumor-host interactions. Upon GAS6 binding to Axl, Axl subsequently activates the signaling pathways downstream such as phosphoinositide 3-kinase (PI3K), RAt sarcoma (RAS), and extracellular signal regulated kinase (ERK).
(§2) This cell line was maintained with an Roswell Park Memorial Institute (RPMI) medium (HYCLONE™) containing 10% bovine calf serum (BCS; HYCLONE™) supplemented iron. The cells were seeded at 2×10^4 cells in 96-well culture plates, and serially diluted compounds were then added. After a 72 hour incubation period at 37° C., cell viability was measured using the ATPLite 1 step assay (PERKIN-ELMER™) that is based on the quantification of ATP from viable cells.
(In general: ATP-based viability assays read luminescence as a measure of living cells.)

Data set [2] addresses JAK2 (Homo sapiens (Human), UniProt O60674). The data set is described as follows: Biochemical inhibition of JAK2. The conditions noted are these: Table 2, range of IC50 value.
The subject of data set [3] is MDA-MB-231 cells. Put plainly: Cell viability assay (ATPLite), MDA-MB-231. Format: cell-based, human. The conditions noted are these: for GI50: 72 hour incubation.
Excerpt: as §1, §2

The test system of data set [4] is CT26-Luciferase colon cancer cells. The data set is described as follows: CT26 peritoneal in vivo metastasis model. The conditions noted are these: 30 mg/kg/day.
Procedure: (§4) Compounds of Formula (I) as obtained above were tested in metastasis models using mouse B16F10 melanoma and CT26-Luciferase colon cancer cells. […] Cell line was harvested by trypsinization when they reached 70-80% confluence. A day before cell inoculation, C57BL/6 mice were maintained under pathogen-free conditions according to SPF guideline (room temperature, 40-60% humidity) and housed in the ABMRC at the Yonsei University.
(§5) Mice were randomized, and three mice for B16F10 model and five mice for CT26 peritoneal metastasis model were allocated per group. Lung metastasis was measured after 14 days of cell inoculation. […] Vehicle for oral administration consists of 10% sodium sulphobutylether β-cyclodextrine (SBECD) in 50 mM citrate buffer (pH 3.0). Animals were monitored for mortality and clinical signs (such as illness and behavioral changes) daily throughout the study. In B16F10 model, after mice sacrificed, organs were fixed with 10% of Formalin solution for 1 day. The FFPE block was sliced by 4 μm thinness on coating slides for applying the H&E staining. Then, tumor nodule counting was calculated. CT26 metastasis was determined by measuring luminescence intensity in peritoneal cavity.
Data set [5] has as its system mouse 4T1 breast cancer cells. The data set is described as follows: 4T1 spontaneous (orthotopic) metastasis model, combination with anti-PD-1 antibody. Format: in vivo, BALB/c female mice. From the text: A day before cell inoculation, fur on the right flank of BALB/C mice was depilated using hair trimmer. On the following day, the skin area around the injection site was disinfected by mildly swabbing with surgical spirit. To establish allografts, BALB/c female mice (7-weeks age) were implanted orthotopically into the mammary gland with 5×10^6 syngeneic 4T1 cells. Mice were sacrificed when average tumor volume reached 1500 mm^3.
Mice were randomized based on tumor volume (˜50 mm^3) and five mice were allocated per group. Tumor grafts were measured after approximately 2 days of cell inoculation when they become palpable. […] After treatment for 28 days, all mice were sacrificed. 4T1 lung metastasis was determined by counting the tumor nodules through H&E staining. 4T1 solid tumor on primary site was measured by a tumor 3D scanner, TM900 (Peria, Belgium). […] The metastatic nodule was measured by microscopic observation.
BALB/c female mice (7-weeks age) were implanted orthotopically into the mammary gland with 5×10^6 syngeneic 4T1 cells. […] Mice were sacrificed on day 28 and lung metastasis was evaluated by counting nodules.

Data set [6] deals with mouse B16F10 melanoma cells. The data set is described as follows: B16F10 lung in vivo metastasis model. The conditions noted are these: oral 30 mg/kg/day.
Procedure: as §4, §5
The target of data set [7] is Truncated human Axl (Homo sapiens, UniProt P30530). The data set is described as follows: Kinase inhibition assay (inhibition of enzymatic Axl kinase activity). Format: biochemical. How it is done:
Compounds of Formula (I) as obtained above were assayed to measure their capacity to inhibit Axl kinase. Axl belongs to the recently identified TYRO-3, Axl, MERTK (TAM) receptor tyrosine kinase (RTK) family. […] Upon GAS6 binding, Axl homodimerizes and subsequently induces several downstream signaling pathways involved in cell proliferation, migration, invasion, anti-apoptosis, angiogenesis, metastasis, and therapeutic resistance. Upregulation of Axl has been reported in a wide variety of cancer cell lines as well as in cancer specimens from patients with breast cancer, acute leukemia, colorectal cancer, lung cancer, melanoma, ovarian cancer, or prostate cancer, among others.
Compounds of Formula (I) as obtained above were initially diluted to […] in 100% DMSO (CALBIOCHEM™) for storage and made into kinase buffer solution to create a compound concentration ranging from 1 uM and 10 uM. Serial dilutions of the compounds were dispensed into a 96-well plate (GREINER BIOSCIENCES™) at 6 μL each. Truncated human Axl (CARNA BIOSCIENCES™) were diluted in kinase buffer and added to the compound solutions and pre-incubated for 30 minutes at room temperature. […] The reaction mixture was incubated for 1 hour. Following the incubation, the stop solution made with EDTA, water, and Lance detection buffer ([…]™) were added (12 μL each) to stop phosphorylation.

In data set [8] the test system is MDA-MB-231 breast cancer cell line. Put plainly: Transwell migration assay. The class given is cell-based, human. The conditions noted are these: even at 0.03 μM, compared to R428. As to the method:
(§3) In order to test whether the compounds of Formula (I) show the effect on inhibition of metastasis, cell migratory and invasive behaviors analyzed using transwell and matrigel invasion assays in MDA-MB-231 breast cancer cell line. […] Cell migration was performed by the transwell assay (BD Biosciences, CA, USA). Briefly, 5×10^4 cells in serum-free RPMI-1640 were seeded on a membrane (8.0-μm pore size) inserted in the wells of a 24-well plate. RPMI-1640 containing 10% FBS was added to the lower chamber of each well. After 24 h, cells in the upper chamber were removed by cotton swab and the cells that had reached the underside of the membrane were fixed and stained with crystal violet (1% in methyl alcohol) for 10 min. The cells located on the underside of the filter (5 fields/filter) were counted. The cell invasion assay was carried out similarly, except that the matrigel (BD Biosciences, CA, USA) was added to each well 6 h before cells were seeded on the membrane. After 48 h, matrigel and any remaining cells in the upper chamber were removed by cotton swabs. Cells on the lower surface of the membrane were fixed and stained as described above. Data are representative of results from three independent fields of stained membrane.

For data set [9], the system named is mouse breast 4T1 cancer cells. The data set is described as follows: Anti-tumor activity in breast 4T1 syngeneic in vivo cancer model. The conditions noted are these: BALB/C mice. How it is done: A day before cell inoculation, fur on the right flank of BALB/C mice was depilated using hair trimmer. On the following day, the skin area around the injection site was disinfected by mildly swabbing with surgical spirit. To establish allografts, cells were suspended in serum-free media and mixed 1:1 with matrigel to obtain 1×10^6 cells/100 μL. […] Mice were randomized based on tumor volume and six mice were allocated per group. Tumor grafts were measured after approximately 5 days of cell inoculation when they become palpable. […] Tumor growth inhibition (TGI) was calculated as follows: % TGI=[1−(Treatment TVFinal−Treatment TVinitial)/(Control TVFinal−Control TVInitial)]*100

Data set [10] deals with 4T1. Put plainly: Anti-tumor activity in immunodeficient mice. Format: in vivo. The conditions noted are these: 30 mg/kg/day.
Data set [11] has as its system MDA-MB-231 breast cancer cell line. Put plainly: Matrigel invasion assay. Format: cell-based, human. The conditions noted are these: even at 0.03 μM, compared to R428. As to the method:
as §3

[12] abbreviates: Table 2, range of IC50 value, read-out: Axl.
[13] abbreviates: day 15, oral QD 30 mg/kg/day for 14 days.

Counter-ions that a name gives are not always drawn. Like-named read-outs stand apart in the source and are kept apart here.

Truncated human Axl, sequence (P30530 26-894 limits assumed): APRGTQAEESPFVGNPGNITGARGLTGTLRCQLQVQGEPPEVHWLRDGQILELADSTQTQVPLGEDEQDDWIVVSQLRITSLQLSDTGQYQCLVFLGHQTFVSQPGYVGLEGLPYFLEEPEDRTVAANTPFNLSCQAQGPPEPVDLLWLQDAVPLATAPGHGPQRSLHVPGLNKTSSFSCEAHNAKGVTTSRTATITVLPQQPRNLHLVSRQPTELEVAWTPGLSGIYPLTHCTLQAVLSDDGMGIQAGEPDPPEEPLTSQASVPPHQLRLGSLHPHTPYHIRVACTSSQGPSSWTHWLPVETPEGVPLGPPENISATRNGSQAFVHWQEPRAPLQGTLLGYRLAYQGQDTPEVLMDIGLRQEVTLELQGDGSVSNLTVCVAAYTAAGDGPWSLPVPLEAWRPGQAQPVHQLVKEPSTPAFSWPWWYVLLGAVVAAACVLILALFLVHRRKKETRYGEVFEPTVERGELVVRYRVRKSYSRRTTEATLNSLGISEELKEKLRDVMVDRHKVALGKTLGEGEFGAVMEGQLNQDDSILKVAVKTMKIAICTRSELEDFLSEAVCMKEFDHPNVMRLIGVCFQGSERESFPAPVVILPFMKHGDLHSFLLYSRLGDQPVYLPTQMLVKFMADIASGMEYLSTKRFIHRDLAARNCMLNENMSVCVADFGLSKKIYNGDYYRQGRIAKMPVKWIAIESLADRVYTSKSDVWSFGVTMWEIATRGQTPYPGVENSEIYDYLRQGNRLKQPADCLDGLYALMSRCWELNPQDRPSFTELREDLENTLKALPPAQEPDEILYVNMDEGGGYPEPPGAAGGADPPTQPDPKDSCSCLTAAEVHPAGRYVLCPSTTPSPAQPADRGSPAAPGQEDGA
JAK2, sequence (O60674 whole entry, species assumed): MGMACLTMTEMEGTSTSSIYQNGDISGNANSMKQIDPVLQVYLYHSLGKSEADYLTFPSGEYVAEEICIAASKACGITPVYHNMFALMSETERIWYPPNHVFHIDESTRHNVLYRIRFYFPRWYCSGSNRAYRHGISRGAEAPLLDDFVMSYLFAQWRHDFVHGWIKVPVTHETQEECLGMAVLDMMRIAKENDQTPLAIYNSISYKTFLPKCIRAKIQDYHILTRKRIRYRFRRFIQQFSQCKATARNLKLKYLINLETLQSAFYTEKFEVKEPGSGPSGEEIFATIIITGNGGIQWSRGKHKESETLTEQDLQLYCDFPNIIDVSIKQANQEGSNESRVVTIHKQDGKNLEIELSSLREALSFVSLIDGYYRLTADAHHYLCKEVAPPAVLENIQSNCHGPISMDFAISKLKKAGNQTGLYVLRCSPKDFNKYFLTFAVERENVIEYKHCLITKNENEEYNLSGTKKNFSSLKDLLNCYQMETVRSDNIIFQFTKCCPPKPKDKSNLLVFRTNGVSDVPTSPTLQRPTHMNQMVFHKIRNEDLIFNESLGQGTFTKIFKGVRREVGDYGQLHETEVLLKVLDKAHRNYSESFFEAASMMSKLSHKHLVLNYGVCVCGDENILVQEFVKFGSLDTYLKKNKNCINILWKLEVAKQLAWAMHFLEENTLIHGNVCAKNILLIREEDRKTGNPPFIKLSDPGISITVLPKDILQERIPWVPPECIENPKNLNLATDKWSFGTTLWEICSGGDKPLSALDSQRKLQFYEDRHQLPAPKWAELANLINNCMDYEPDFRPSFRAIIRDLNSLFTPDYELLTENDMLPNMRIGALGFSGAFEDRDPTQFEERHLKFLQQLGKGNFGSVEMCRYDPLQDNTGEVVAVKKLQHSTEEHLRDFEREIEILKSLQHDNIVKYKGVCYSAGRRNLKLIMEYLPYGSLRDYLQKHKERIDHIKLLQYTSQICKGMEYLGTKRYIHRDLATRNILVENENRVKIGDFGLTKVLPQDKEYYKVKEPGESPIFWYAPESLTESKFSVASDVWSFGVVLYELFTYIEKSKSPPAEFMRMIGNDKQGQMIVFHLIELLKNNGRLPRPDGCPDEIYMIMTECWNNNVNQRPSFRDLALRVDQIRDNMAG

Turning to `CCc1nc(C(N)=O)c(Nc2ccc(N3CCC(N4CCN(C)CC4)CC3)c(OC)c2)nc1NC1CCOCC1` [ASP2215, gilteritinib, reference compound], the 50% growth inhibitory concentration (GI50) in data set [1] (Homo sapiens, Hs-578T, 72 h) was in the range of 3.1 to 10 µM; in data set [3] (Homo sapiens, MDA-MB-231, 72 h), 3.1 to 10 µM. For the same compound, the IC50 in [2] lay in the range of 0.011 to 0.1 µM.
As for `CN1CCC(Nc2nc(Nc3ccc(Oc4ccccc4)cc3)c3c(=O)[nH]cc(Br)c3n2)CC1.Cl` [Compound 226, 8-bromo-2-((1-methylpiperidin-4-yl)amino)-4-((4-phenoxyphenyl)amino)pyrido[4,3-d]pyrimidin-5(6H)-one hydrochloride], in data set [4] (CT-26 peritoneal metastasis model), the “luminescence intensity in the peritoneal cavity” value is on record as “drastically reduced”. The survival of mice entry in [4] (QD, vehicle mice started to die from day 9) is reported as “alive during the treatment period”. Further, the IC50 in data set [2] lay in the range of 0.101 to 1 µM. The “total metastatic burden and number of larger metastases (medium+large, ≥5 mm diameter)” value in data set [5] (30 mg/kg/day, 4 weeks) is on record as “significantly suppressed”. In [5] (4 weeks treatment, no different efficacy between groups), the “tumor growth on primary site (mammary fat pad)” value was “inhibition of tumor growth”. For the same compound, the “metastasis into the lung (tumor nodules)” value in data set [5] (day 28, compound 226 30 mg/kg/day and/or anti-PD-1 antibody twice/week for 4 weeks) is given as “significantly decreased”. The “tolerability (clinical signs)” value in [6] (B16F10 lung and CT-26 peritoneal metastasis models) is given as “well tolerated”. Further, in [6] (B16F10 model), the “lung metastasis in gross lung specimens” value is given as “dramatically inhibited lung metastasis” and the tumor nodules entry is recorded as “no tumor nodules”.
Consider `CN1CCC(Nc2nc(Nc3ccc(OC4CCCCC4)cc3)c3c(=O)[nH]cc(Br)c3n2)CC1` [Compound 228, 8-bromo-4-((4-(cyclohexyloxy)phenyl)amino)-2-((1-methylpiperidin-4-yl)amino)pyrido[4,3-d]pyrimidin-5(6H)-one], for which the IC50 in data set [2] is 0.101 to 1 µM; in data set [7] (Table 1, read-out: Axl (IC50)), 0.101 to 1 µM; in data set [7] (setting [12]) it was 0.101 to 1 µM.
In the case of `CN1CCC(Nc2nc(Nc3ccc(OC4CCCCC4)cc3)c3c(=O)[nH]cc(Br)c3n2)CC1` [Compound 233, 8-bromo-4-((4-(cyclohexyloxy)phenyl)amino)-2-((1-methylpiperidin-4-yl)amino)pyrido[4,3-d]pyrimidin-5(6H)-one hydrochloride], the figures for the GI50 in [1] (hydrochloride) and in [3] (hydrochloride) were 1.1 to 3 µM and 3.1 to 10 µM, respectively. For the same compound, the IC50 in data set [2] lay in the range of 0.101 to 1 µM; in data set [7] (Table 1, read-out: Axl (IC50)), 0.101 to 1 µM; in data set [7] (setting [12]) it was 0.101 to 1 µM.
For the compound `CN1CCC(Nc2nc(Nc3ccc(OCC4CCCC4)cc3)c3c(=O)[nH]cc(Br)c3n2)CC1` [Compound 235, 8-bromo-4-((4-(cyclopentylmethoxy)phenyl)amino)-2-((1-methylpiperidin-4-yl)amino)pyrido[4,3-d]pyrimidin-5(6H)-one hydrochloride], the GI50 in data set [1] (Homo sapiens, Hs-578T, 72 h) fell in the range of 1.1 to 3 µM; in [3] (Homo sapiens, MDA-MB-231, 72 h) it was 1.1 to 3 µM. Also, the IC50 in data set [7] (Table 1, read-out: Axl (IC50)) fell in the range of 0.101 to 1 µM.
For the compound `CN1CCC(Nc2nc(Nc3ccc(OC4CCCC4)cc3)c3c(=O)[nH]cc(Br)c3n2)CC1.Cl` [Compound 237, 8-bromo-4-((4-(cyclopentyloxy)phenyl)amino)-2-((1-methylpiperidin-4-yl)amino)pyrido[4,3-d]pyrimidin-5(6H)-one hydrochloride], the concentration for 50% growth inhibition (GI50) fell in the range of 0.1 to 1 µM in [1] (Homo sapiens, Hs-578T, 72 h) and 1.1 to 3 µM in data set [3] (Homo sapiens, MDA-MB-231, 72 h). The “inhibition level in Axl-harboring breast cancer cell lines” value in [3] (compared with references ASP2215 and R428, MDA-MB-231 and Hs578T) was “greater than those exhibited by reference ASP2215 and R428”. The IC50 in data set [7] (Table 1, read-out: Axl (IC50)) was in the range of 0.101 to 1 µM.
Take `CN1CCC(Nc2nc(Nc3ccc(Oc4cccc(F)c4)cc3)c3c(=O)[nH]cc(Br)c3n2)CC1.Cl` [Compound 238, 8-bromo-4-((4-(3-fluorophenoxy)phenyl)amino)-2-((1-methylpiperidin-4-yl)amino)pyrido[4,3-d]pyrimidin-5(6H)-one hydrochloride]: the “migration of MDA-MB-231 cells” value in data set [8] is “significantly inhibited”. Further, the GI50 in data set [1] (hydrochloride) and in data set [3] (hydrochloride) was 1.1 to 3 µM in each case. The same compound came in with an average tumor volume in [9] (setting [13]) of 669±60 mm^3. Besides, the “tumor growth inhibition (TGI)” value in [9] (setting [13]) turned out to be 59%. Also, the “tolerability (clinical signs, body weight)” value in data set [9] (oral QD 30 mg/kg/day) is listed as “well tolerated”. The IC50 in [2] lay within 0.101 to 1 µM; in [7] (Table 1, read-out: Axl (IC50)), 0.011 to 0.1 µM; in [7] (setting [12]), 0.011 to 0.1 µM. Further, in [10], the anti-tumor effect entry is “no anti-tumor effect”. For the same compound, the “inhibition of kinase activity of Axl” value in data set [7] (result in words) was “strong inhibition”. The “invasion of MDA-MB-231 cells” value in [11] is “significantly inhibited”.
Regarding `CN1CCC(Nc2nc(Nc3ccc(Oc4cccc(F)c4)cc3)c3c(=O)[nH]cc(Br)c3n2)CC1` [Compound 240, 8-bromo-4-((4-(3-fluorophenoxy)phenyl)amino)-2-((1-methylpiperidin-4-yl)amino)pyrido[4,3-d]pyrimidin-5(6H)-one], the GI50 in data set [1] and in [3] was 3.1 to 10 µM in each case. Further, the IC50 lay within 0.101 to 1 µM in data set [2]; 0.011 to 0.1 µM in data set [7] (Table 1, read-out: Axl (IC50)); 0.011 to 0.1 µM in [7] (setting [12]).
Turning to `CN1CCC(Nc2nc(Nc3ccc(Oc4ccc(F)c(F)c4)cc3)c3c(=O)[nH]cc(Br)c3n2)CC1` [Compound 241, 8-bromo-4-((4-(3,4-difluorophenoxy)phenyl)amino)-2-((1-methylpiperidin-4-yl)amino)pyrido[4,3-d]pyrimidin-5(6H)-one hydrochloride], the 50% growth inhibitory concentration (GI50) in data set [1] (Homo sapiens, Hs-578T, 72 h) lay within 3.1 to 10 µM; in data set [3] (Homo sapiens, MDA-MB-231, 72 h), 3.1 to 10 µM. For the same compound, the IC50 in data set [2] is 1 to 10 µM; in data set [7] (Table 1, read-out: Axl (IC50)) it was 0.011 to 0.1 µM; in data set [7] (setting [12]), 0.011 to 0.1 µM.
With `Nc1nc(Nc2ccc3c(c2)CC[C@@H](N2CCCC2)CC3)nn1-c1cc2c(nn1)-c1ccccc1CCC2` [Compound R428, reference compound], the GI50 was in the range of 3.1 to 10 µM in data set [1] (Homo sapiens, Hs-578T, 72 h) and 11 to 30 µM in data set [3] (Homo sapiens, MDA-MB-231, 72 h). Also, the IC50 in data set [2] is 0.101 to 1 µM.

As usually defined, the GI50 is the concentration at which growth is held to half of that of the control.

These data come from US12350272B2, “Pyridopyrimidinone derivatives for use as AXL inhibitors” (OSCOTEC INC., priority 2018, dated 2025).
